Results taken from patent publication US20200055897A1, “MODIFIED PEPTOIDS” (Technion Research & Development Foundation Limited, priority 2017, published 2020).
≈ marks a conversion by molar mass, not a printed value. Where “and” joins values, the source holds several entries; their conditions need not be identical. Equal values may be shown once. Read-outs that look alike come from different tables or passages of the source. Starred links: 1 amine or outer side, 2 acyl side, 3 side chain; linkers in the order of their positions; H or OH if unused. Non-standard residues stand in square brackets, D forms with d. Residues, ends and D or L forms follow the SMILES beside them. *: point of attachment. N(CH2CH2O-4'-Tpy)Gly = O=C(O)CNCCOc1cc(-c2ccccn2)nc(-c2ccccn2)c1; Acetyl(2-(piperazin-1-yl)) = O=C(CN1CCNCC1)*; X2 = O=C(CN(Cc1ccc2cccc(O)c2n1)[*:1])[*:2]; Gly(Nα-NHCO2Et) = CCOC(=O)NNCC(=O)O; Nrpe = C[C@@H](NCC(=O)O)c1ccccc1; X4 = O=C(CN1CCCN([*:1])CC1)[*:2]; Nspe = C[C@H](NCC(=O)O)c1ccccc1; X1 = O=C(CN1CCN([*:1])CC1)[*:2]; X5 = NC(=O)CN1CCN(*)CC1; X3 = O=C(CN1CCCNCC1)*

Key:
[1] = General method for water solubility test (gradual addition of water to 1 mg peptoid until clear); assay type: physicochemical
Description: 1 mg peptoid was placed in an Eppendorf container and water was added gradually (e.g., […] per addition) until a clear solution was obtained. The solubility test was repeated three times and average values are presented. The limit of the test was typically 2.0×10^2 mg/liter (i.e., 1 mg per 5 ml).
Water solubility tests were carried out by a gradual addition of 5 μl distilled water to 1 mg peptoid until a clear solution was obtained. This assay was repeated three times and results were averaged.

[2] = Circular dichroism (CD) spectra of peptoids in water (temperature and concentration dependence); assay type: physicochemical; conditions: for Aggregation in water from concentration dependence of CD spectra: 40 to 180 μM
Description: Circular dichroism (CD) measurements were performed using a J-810-150S circular dichroism spectropolarimeter (Jasco). Spectra were obtained in a 1 mm path-length fused quartz cell. Prior to taking measurements, 5 mM stock oligomer solution was constituted in 100% water. The appropriate dilutions were made immediately before the measurements. Eight scans were taken for each sample at a scan rate of 1 nm/second at 1 nm increments. Data are expressed in terms of per-residue molar ellipticity (degrees*cm^2/dmol) calculated per mole of amide groups present.
(§1) In order to assess whether the dissolved peptoids form aggregates, fluorescence spectra were determined for P18 and P21 (which comprise Ns1npe) dissolved in water. Aggregation of peptoids with Ns1npe groups has been reported to be associated with an excimer band at 392 nm [Fuller et al., Org. Lett. 2013, 15:5118-5121]. In addition, CD spectra of P21 were determined at various concentrations ranging from 40 to 180 μM in water.
Similarly, CD spectra of P2, P5 and P8 (which comprise Nspe rather than Ns1npe as in P18 and P21) were determined in order to assess whether the dissolved peptoids form aggregates in water.

[3] = Fluorescence emission spectra in water (excimer band, aggregation); assay type: physicochemical; conditions: 40 μM
Description: as §1

[4] = literature report (Baskin & Maayan 2016); cited from earlier work
[5] = Selectivity towards Cu^2+ by UV-visible absorption spectra (metal ion mixture vs Cu^2+-complex); assay type: binding; conditions: water; 1 equivalent peptoid, mixture of Cu^2+, Co^2+, Zn^2+, Fe^2+, Mn^2+ and Ni^2+
Description: UV-visible spectrometry measurements were performed using a Cary™ 60 UV-Vis spectrophotometer (Agilent) with Czerny-Turner monochromator. In a typical UV-visible experiment, 10 μl of a peptoid solution (5 mM) was diluted in 3 ml H2O (to obtain a 17 μM concentration) and the UV-visible spectrum was measured. Afterwards 1 equivalent of Cu^2+ (10 μl, 5 mM) or solution containing mixtures of metal ions (1 equivalent Cu^2+, Co^2+, Zn^2+, Mn^2+, Ni^2+ and Fe^3+, 5 mM, 10 μl) was added and the spectrum was measured again.
In order to evaluate the selectivity of P33 and P34 towards Cu^2+, 1 equivalent of each peptoid in water was added to 1 equivalent of a mixture solution containing the metal ions Cu^2+, Co^2+, Zn^2+, Fe^2+, Mn^2+ and Ni^2+, and UV-visible absorption spectra were recorded and compared to UV-visible absorption of Cu^2+-complexes of the peptoids. It has been previously shown that comparing UV-visible absorption spectra is a highly reliable tool to assess the selectivity of the peptoid chelators.

Row | Structure (SMILES) | solubility [1] | Aggregation in water from concentration dependence of CD spectra [2] | further results
1 | C[C@@H](c1ccccc1)N(CC(N)=O)C(=O)CN(C(=O)CN(C(=O)CN(C(=O)CN(C(=O)CN(C(=O)CN1CCNCC1)[C@@H](C)c1ccccc1)[C@@H](C)c1ccccc1)[C@@H](C)c1ccccc1)[C@@H](C)c1ccccc1)[C@@H](C)c1ccccc1 [Peptoid P2, (Nspe)6-Npz] ({Acetyl(2-(piperazin-1-yl))}-[Nspe][Nspe][Nspe][Nspe][Nspe][Nspe]-NH2) | ~900 µM and 1000 µg/mL | no aggregation | solubility ([1]; pH 4.5): 1.66 mg/mL (≈ 1.49 mM); solubility ([1]; pH 7.5): 1.28 mg/mL (≈ 1.15 mM); solubility ([1]; pH 10.5): < 0.2 mg/mL; Change of CD spectrum (helical structure) in water with temperature ([2]; 0° C. to 90° C.): does not change significantly
2 | C[C@@H](c1ccccc1)N(CC(N)=O)C(=O)CN(C(=O)CN(C(=O)CN(C(=O)CN(C(=O)CN(C(=O)CN1CCN(C(=O)CN2CCNCC2)CC1)[C@@H](C)c1ccccc1)[C@@H](C)c1ccccc1)[C@@H](C)c1ccccc1)[C@@H](C)c1ccccc1)[C@@H](C)c1ccccc1 [Peptoid P5, (Nspe)6-(Npz)2] ({Acetyl(2-(piperazin-1-yl))}-[X1][Nspe][Nspe][Nspe][Nspe][Nspe][Nspe]-NH2) | 58 mg/mL (≈ 46.9 mM) | no aggregation | Water solubility relative to that of P2 [1]: over 50 times; Water solubility relative to that of P2 at pH 10.5 ([1]; pH 10.5): 30 times
3 | C[C@@H](c1ccccc1)N(CC(N)=O)C(=O)CN(C(=O)CN(C(=O)CN(C(=O)CN(C(=O)CN(C(=O)CN1CCCN(C(=O)CN2CCCNCC2)CC1)[C@@H](C)c1ccccc1)[C@@H](C)c1ccccc1)[C@@H](C)c1ccccc1)[C@@H](C)c1ccccc1)[C@@H](C)c1ccccc1 [Peptoid P8, (Nspe)6-(Nhpz)2] (X3-[X4][Nspe][Nspe][Nspe][Nspe][Nspe][Nspe]-NH2) | 510 mg/mL (≈ 403 mM) | no aggregation | 
4 | C[C@@H](c1cccc2ccccc12)N(CC(N)=O)C(=O)CN(C(=O)CN(C(=O)CN(C(=O)CN1CCN(C(=O)CN2CCNCC2)CC1)[C@@H](C)c1cccc2ccccc12)[C@@H](C)c1cccc2ccccc12)[C@@H](C)c1cccc2ccccc12 [Peptoid P18, (Ns1npe)4-(Npz)2] | 13.3 mg/mL (≈ 11.9 mM) |  | Excimer band near 392 nm (aggregation) [3]: no excimer band was observed
5 | C[C@@H](c1cccc2ccccc12)N(CC(N)=O)C(=O)CN(C(=O)CN(C(=O)CN(C(=O)CN1CCN(C(=O)CN2CCN(C(=O)CN3CCNCC3)CC2)CC1)[C@@H](C)c1cccc2ccccc12)[C@@H](C)c1cccc2ccccc12)[C@@H](C)c1cccc2ccccc12 [Peptoid P21, (Ns1npe)4-(Npz)3] | 176 mg/mL (≈ 142 mM) | some concentration-dependent aggregation | Excimer band near 392 nm (aggregation) [3]: no excimer band was observed

The next lines start with results.

Row | solubility [1] | Aggregation in water from concentration dependence of CD spectra [2] | Structure (SMILES) | further results
6 | 177 mg/mL (≈ 149 mM) |  | CCOC(=O)NN(CC(=O)N(CC(N)=O)[C@H](C)c1ccccc1)C(=O)CN(C(=O)CN(NC(=O)OCC)C(=O)CN(C(=O)CN(NC(=O)OCC)C(=O)CN1CCN(C(=O)CN2CCNCC2)CC1)[C@H](C)c1ccccc1)[C@H](C)c1ccccc1 [Peptoid P30] ({Acetyl(2-(piperazin-1-yl))}-[X1][Gly(Nα-NHCO2Et)][Nrpe][Gly(Nα-NHCO2Et)][Nrpe][Gly(Nα-NHCO2Et)][Nrpe]-NH2) | 
7 | < 0.2 mg/mL |  | C[C@H](NCC(=O)N(CC(=O)N(CC(=O)N(CC(=O)N(CCOc1cc(-c2ccccn2)nc(-c2ccccn2)c1)CC(=O)N(CC(N)=O)[C@@H](C)c1ccccc1)[C@@H](C)c1ccccc1)[C@@H](C)c1ccccc1)Cc1ccc2cccc(O)c2n1)c1ccccc1 [Peptoid P32, reference compound] (H-[Nspe][X2][Nspe][Nspe][N(CH2CH2O-4'-Tpy)Gly][Nspe]-NH2; N-terminus assumed) | Selective chelation of Cu^2+ (reported) [4]: selective peptoid chelator for Cu^2+
8 | 244 mg/mL (≈ 183 mM) |  | C[C@@H](c1ccccc1)N(CC(N)=O)C(=O)CN(CCOc1cc(-c2ccccn2)nc(-c2ccccn2)c1)C(=O)CN(C(=O)CN(C(=O)CN(Cc1ccc2cccc(O)c2n1)C(=O)CN(C(=O)CN1CCNCC1)[C@@H](C)c1ccccc1)[C@@H](C)c1ccccc1)[C@@H](C)c1ccccc1 [Peptoid P33, Nspe-Ntrp-(Nspe)2-Nhq-Nspe-Npz] ({Acetyl(2-(piperazin-1-yl))}-[Nspe][X2][Nspe][Nspe][N(CH2CH2O-4'-Tpy)Gly][Nspe]-NH2; N-terminus assumed) | Selective binding to Cu^2+ [5]: does not selectively bind to Cu^2+
9 | 8.3 mg/mL (≈ 6.22 mM) |  | C[C@H](NCC(=O)N(CC(=O)N(CC(=O)N(CC(=O)N(CCOc1cc(-c2ccccn2)nc(-c2ccccn2)c1)CC(=O)N(CC(=O)N1CCN(CC(N)=O)CC1)[C@@H](C)c1ccccc1)[C@@H](C)c1ccccc1)[C@@H](C)c1ccccc1)Cc1ccc2cccc(O)c2n1)c1ccccc1 [Peptoid P34, Npz-Nspe-Ntrp-(Nspe)2-Nhq-Nspe] (H-[Nspe][X2][Nspe][Nspe][N(CH2CH2O-4'-Tpy)Gly][Nspe]-X5; N-terminus assumed) | Selective binding to Cu^2+ [5]: selectively binds to Cu^2+
